Source: patent US10821151B2, “Compositions and methods for treating cancer and persistent viral infections” (SUSAVION BIOSCIENCES, INC., priority 2015, dated 2020)
Positions of bridges follow the written chain, without caps; N, C: chain ends. Chains are numbered I, II in the order given. No end group written: not given here.

Columns and labels:
NKG2D = target: T1, NKG2D (Homo sapiens, UniProt P26718); experiment: solid-phase binding assay with Fc-chimeric NKG2D; conditions: for inhibition of binding of SVH1C to NKG2D: fetuin 5, 10, 30 μM, sialyllactose 12, 20, 40 μM
T1 sequence (P26718 78-216 limits assumed): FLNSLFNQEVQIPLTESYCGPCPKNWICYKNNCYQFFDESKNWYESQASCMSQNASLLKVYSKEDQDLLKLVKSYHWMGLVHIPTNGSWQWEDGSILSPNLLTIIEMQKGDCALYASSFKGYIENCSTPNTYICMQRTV

MTS cell viability assay = format: cell-based; conditions: human, human PBMCs; 3 days, peptide alone or with diluted anti-HIV antiserum, 1 nM to 1 μM
Procedure: (§1) Human PBMCs were incubated 3 days with peptides and then assay plates were stained with the soluble tetrazolium-based dye MTS to determine cell viability. The mitochondrial enzymes of metabolically active cells metabolize MTS to yield a colored formazan product. After an incubation period of 4 to 6 h at 37° C., the plates were read spectrophotometrically. Cells treated with peptide SVH1C alone or with diluted anti-HIV antiserum were 100±2% viable at peptide concentrations of 1 nM to 1 μM. In another assay to determine cytotoxicity, cells were doubly stained with acridine orange and ethidium bromide. In this assay, viable cells fluoresce green while dead cells fluoresce red.

cells = experiment: acridine orange / ethidium bromide cytotoxicity assay; format: cell-based; conditions: 1 mM
Procedure: as §1

CLEC9a = CLEC9a (Homo sapiens, UniProt Q6UXN8); experiment: solid-phase binding assay
Procedure: (§2) The buffer in these assays was PBS containing 0.05% Tween-20. […] The receptors were Fc-chimeras and were assayed in protein A/G-coated microtiter wells. Siglec-1 and CLEC10a contained a C-terminal His tag and were assayed in a separate experiment with Ni-coated wells. SEM was determined from four independent experiments run in duplicate. Inhibition by fetuin is shown by the average of two assays in which the glycoprotein was added at 10 μM (second, black bar) or 30 μM (third, light grey bar) in each receptor group. Binding was measured by a colorimetric assay of peroxidase.
(§3) The buffer in these assays was PBS containing 0.05% Tween-20. […] The receptors were Fc-chimeras and were assayed in protein A/G-coated microtiter wells. The assay was similar to that described under FIG. 7.
(§4) Biotinylated peptides were then incubated with the receptors, the wells were stringently washed and the bound peptide was detected by binding of streptavidin conjugated with peroxidase.

CLEC10a = target: T2, CLEC10a (Homo sapiens, UniProt Q8IUN9); experiment: solid-phase binding assay
T2 sequence (Q8IUN9 1-316): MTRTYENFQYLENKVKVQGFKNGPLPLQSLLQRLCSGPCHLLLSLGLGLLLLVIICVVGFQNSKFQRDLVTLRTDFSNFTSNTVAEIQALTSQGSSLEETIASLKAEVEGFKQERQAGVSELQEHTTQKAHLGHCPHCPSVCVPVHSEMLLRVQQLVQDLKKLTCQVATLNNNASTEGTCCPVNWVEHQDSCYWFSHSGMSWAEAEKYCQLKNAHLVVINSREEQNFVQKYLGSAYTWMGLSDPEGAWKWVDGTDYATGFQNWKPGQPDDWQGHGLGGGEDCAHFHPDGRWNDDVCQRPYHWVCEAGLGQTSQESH
Procedure: as §2, §3, §4

DC-SIGN = target: T3, DC-SIGN (Homo sapiens, UniProt Q9NNX6); experiment: solid-phase binding assay
T3 sequence (Q9NNX6 1-404): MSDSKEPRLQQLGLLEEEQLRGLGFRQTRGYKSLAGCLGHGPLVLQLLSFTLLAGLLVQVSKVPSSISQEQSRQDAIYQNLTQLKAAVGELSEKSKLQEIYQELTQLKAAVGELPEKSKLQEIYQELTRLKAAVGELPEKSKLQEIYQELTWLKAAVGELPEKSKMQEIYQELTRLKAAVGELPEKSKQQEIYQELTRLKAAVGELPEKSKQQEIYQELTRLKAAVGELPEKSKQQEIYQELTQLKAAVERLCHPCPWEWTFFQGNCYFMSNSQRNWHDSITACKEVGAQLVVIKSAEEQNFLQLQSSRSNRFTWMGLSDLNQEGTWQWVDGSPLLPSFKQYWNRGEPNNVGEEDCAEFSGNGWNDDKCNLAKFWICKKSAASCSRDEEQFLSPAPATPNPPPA
Procedure: as §2, §3, §4

langerin = langerin (Homo sapiens, UniProt Q9UJ71); experiment: solid-phase binding assay
Procedure: (§5) The buffer in these assays was PBS containing 0.05% Tween-20. […] The receptors were Fc-chimeras and were assayed in protein A/G-coated microtiter wells.
as §4

ASGPR-1 = target: T4, ASGPR-1 (Homo sapiens, UniProt P07306); experiment: solid-phase binding assay
T4 sequence (P07306 1-291): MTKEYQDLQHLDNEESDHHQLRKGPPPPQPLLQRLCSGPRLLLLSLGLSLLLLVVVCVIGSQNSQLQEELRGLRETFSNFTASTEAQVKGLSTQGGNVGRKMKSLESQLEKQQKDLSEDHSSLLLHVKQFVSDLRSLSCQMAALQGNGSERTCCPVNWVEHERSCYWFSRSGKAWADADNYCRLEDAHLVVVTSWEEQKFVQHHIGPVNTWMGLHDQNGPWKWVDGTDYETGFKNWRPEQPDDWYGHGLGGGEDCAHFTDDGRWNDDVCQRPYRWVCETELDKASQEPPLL
Procedure: as §5, §4

dectin-1 = target: T5, dectin-1 (Homo sapiens, UniProt Q9BXN2); experiment: solid-phase binding assay
T5 sequence (Q9BXN2 1-247): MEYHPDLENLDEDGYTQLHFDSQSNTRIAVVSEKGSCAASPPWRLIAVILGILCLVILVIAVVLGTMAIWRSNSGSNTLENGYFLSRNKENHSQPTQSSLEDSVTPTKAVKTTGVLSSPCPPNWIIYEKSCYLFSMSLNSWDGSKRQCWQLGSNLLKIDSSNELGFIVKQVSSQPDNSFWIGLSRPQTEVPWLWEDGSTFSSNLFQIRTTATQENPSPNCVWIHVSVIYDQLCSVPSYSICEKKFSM
Procedure: as §5, §4

Siglec-1 = Siglec-1 (Homo sapiens, UniProt Q9BZZ2); experiment: solid-phase binding assay
Procedure: as §5, §4

ovarian cancer cell line = experiment: mouse model of ovarian cancer, ascites monitored by body weight
Procedure: Body weights of individual mice were measured during treatment with 1 or 0.1 nmole/g doses of SV6D (SEQ ID NO:5) injected subcutaneously every other day.
In a mouse model of ovarian cancer, a cancer cell line was implanted into the peritoneal cavity. The cells form tumors and in time also release malignant cells into the cavity. The activity of SV6D to treat ovarian cancer was tested by alternate-day injections of 1 and 0.1 nanomole per gram of SV6D. Development of ascites was monitored by an increase in body weight of the animals.

siglecs = experiment: solid-phase binding assay, biotinylated peptide, streptavidin-peroxidase; conditions: fetuin added at 10 μM or 30 μM
Procedure: The buffer in these assays was PBS containing 0.05% Tween-20. […] The receptors were Fc-chimeras and were assayed in protein A/G-coated microtiter wells. Siglec-1 and CLEC10a contained a C-terminal His tag and were assayed in a separate experiment with Ni-coated wells. SEM was determined from four independent experiments run in duplicate. […] Binding was measured by a colorimetric assay of peroxidase.

Chain of Siglec-1 (Q9BZZ2 20-1709): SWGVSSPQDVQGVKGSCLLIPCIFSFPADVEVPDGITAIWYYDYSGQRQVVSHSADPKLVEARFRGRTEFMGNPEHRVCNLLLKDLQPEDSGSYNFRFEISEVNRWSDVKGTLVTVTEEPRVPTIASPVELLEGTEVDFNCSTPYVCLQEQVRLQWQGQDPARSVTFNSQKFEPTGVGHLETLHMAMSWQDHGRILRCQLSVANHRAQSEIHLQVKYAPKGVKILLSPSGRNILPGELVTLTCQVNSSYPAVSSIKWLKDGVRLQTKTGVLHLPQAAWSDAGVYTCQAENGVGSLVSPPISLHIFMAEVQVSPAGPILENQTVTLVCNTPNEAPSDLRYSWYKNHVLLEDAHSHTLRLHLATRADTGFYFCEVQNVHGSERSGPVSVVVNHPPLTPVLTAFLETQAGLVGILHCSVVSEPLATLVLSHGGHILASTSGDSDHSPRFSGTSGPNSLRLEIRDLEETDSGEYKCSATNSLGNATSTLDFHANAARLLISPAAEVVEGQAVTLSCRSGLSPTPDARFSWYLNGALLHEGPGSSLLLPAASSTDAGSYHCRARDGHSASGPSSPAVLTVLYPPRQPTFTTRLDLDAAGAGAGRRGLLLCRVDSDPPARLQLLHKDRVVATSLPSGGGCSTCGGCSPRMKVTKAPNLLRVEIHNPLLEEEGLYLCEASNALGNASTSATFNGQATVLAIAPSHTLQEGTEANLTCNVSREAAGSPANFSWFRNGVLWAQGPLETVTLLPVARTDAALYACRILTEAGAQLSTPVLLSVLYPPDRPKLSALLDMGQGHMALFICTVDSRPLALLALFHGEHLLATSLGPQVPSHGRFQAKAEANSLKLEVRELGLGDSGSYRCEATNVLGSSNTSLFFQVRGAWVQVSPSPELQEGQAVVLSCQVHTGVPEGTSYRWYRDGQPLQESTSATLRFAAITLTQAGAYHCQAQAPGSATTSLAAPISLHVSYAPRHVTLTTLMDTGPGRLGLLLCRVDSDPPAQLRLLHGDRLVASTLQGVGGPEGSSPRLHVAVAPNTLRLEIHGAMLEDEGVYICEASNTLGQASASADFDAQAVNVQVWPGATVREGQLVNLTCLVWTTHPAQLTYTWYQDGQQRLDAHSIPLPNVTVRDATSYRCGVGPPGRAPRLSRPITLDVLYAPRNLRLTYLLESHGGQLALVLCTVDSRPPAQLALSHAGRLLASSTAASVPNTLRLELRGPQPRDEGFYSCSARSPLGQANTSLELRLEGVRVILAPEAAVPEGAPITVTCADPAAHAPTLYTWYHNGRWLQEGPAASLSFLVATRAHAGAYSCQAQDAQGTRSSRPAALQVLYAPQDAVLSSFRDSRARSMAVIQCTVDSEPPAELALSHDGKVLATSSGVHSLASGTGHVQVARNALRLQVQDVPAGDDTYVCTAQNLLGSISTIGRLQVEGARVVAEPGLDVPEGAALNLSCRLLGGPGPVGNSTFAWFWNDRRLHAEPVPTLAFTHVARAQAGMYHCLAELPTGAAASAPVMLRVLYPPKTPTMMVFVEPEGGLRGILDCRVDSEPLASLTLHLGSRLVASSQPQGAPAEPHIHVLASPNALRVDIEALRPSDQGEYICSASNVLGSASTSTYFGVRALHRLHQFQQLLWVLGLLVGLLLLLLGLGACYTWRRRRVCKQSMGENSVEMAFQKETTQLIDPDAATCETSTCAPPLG
Chain of langerin (Q9UJ71 whole entry): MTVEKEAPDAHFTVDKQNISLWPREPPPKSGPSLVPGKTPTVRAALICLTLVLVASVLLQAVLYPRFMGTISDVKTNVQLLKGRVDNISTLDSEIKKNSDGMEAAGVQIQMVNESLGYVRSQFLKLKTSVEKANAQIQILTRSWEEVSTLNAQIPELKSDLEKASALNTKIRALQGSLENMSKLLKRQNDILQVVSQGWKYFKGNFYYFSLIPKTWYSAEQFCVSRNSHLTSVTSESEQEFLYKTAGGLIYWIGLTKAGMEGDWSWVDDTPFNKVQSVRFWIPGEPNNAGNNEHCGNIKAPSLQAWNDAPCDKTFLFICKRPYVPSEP
Chain of CLEC9a (Q6UXN8 whole entry): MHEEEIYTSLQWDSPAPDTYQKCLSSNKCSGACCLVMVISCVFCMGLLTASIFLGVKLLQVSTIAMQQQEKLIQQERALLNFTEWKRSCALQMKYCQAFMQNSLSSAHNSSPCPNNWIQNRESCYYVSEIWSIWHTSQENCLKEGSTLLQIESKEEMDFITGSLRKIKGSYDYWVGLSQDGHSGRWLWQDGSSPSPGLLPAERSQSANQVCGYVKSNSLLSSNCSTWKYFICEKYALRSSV

With “I: NPSHPLSGGGGSKK-NH2 / II: NPSHPLSGGGGSK / III: NPSHPLSGGGGS / IV: NPSHPLSGGGGS (amide I:13-IV:C, I:14-II:C, II:13-III:C) [SVH1C, [NPSHPLSGGGGS]4K3-NH2]” the Kd (NKG2D) was about 1000 nM, the viability at 72 h (MTS cell viability assay) was 100 ± 2% and the cytotoxicity (cells) was “did not exhibit cytotoxicity”.

In the case of [NQHTPRGGGS]4K3-NH2 [SV6D], the “binding to CLEC9a” value (CLEC9a) is reported as “not”, the “binding to CLEC10a” value (CLEC10a) is reported as “bound strongly” and the “binding to DC-SIGN” value (DC-SIGN) is reported as “not”. The binding to langerin (langerin) was “bound strongly”, the “binding to ASGPR-1” value (ASGPR-1) was “bound strongly” and the “binding to dectin-1” value (dectin-1) was “bound strongly”. For the same substance, the “binding to Siglec-1” value (Siglec-1) was “not” and the progression of ascites (ovarian cancer cell line) was “effectively inhibited”.

With fetuin the “inhibition of binding of SVH1C to NKG2D” value (NKG2D) was “inhibited” and the “inhibition of binding of SVH1C to siglecs” value (siglecs) was “inhibited”.

In the case of sialyllactose, the “inhibition of binding of SVH1C to NKG2D” value (NKG2D) is reported as “inhibited”.
